Consider one molecule from patent publication US20100173890A1, “Compounds, Process for their Preparation, Intermediates, Pharmaceutical Compositions and their use in the Treatment of 5-HT6 Mediated Disorders such as Alzheimer's Disease, Cognitive Disorders, Cognitive Impairment Associated with Schizophrenia, Obesity and Parkinson's Disease” (AstraZeneca AB, priority 2005, published 2010).

Each structure is given as a SMILES string.

In the assay the target is T1, Rat Striatal 5-HT6 Receptors (Rattus norvegicus, UniProt P31388).
T1 construct: Striatal tissue from adult rats (Sprague-Dawley, 320-370 g, B & K Sweden) were dissected out, weighed and homogenized; from tissue; host or cells: rat striatum (Sprague-Dawley) membranes
Put plainly: [125I]SB258585 binding to rat striatal 5-HT6 receptors. As to conditions: competition with 0.5-1 nM [125I]SB258585, rat striatal membranes. The method, then: Method for [125I]SB258585 Binding to Rat Striatal 5-HT6 Receptors
[^125I]SB258585 (1) with specific radioactivity 2000 Ci/mmol was purchased from Amersham Biosciences Europe GmbH, Freiburg, Germany. Other chemicals were is purchased from commercial sources and were of analytical grade.
Striatal tissue from adult rats (Sprague-Dawley, 320-370 g, B & K Sweden) were dissected out, weighed and homogenized in buffer containing 50 mM Tris-HCl, 4 mM MgCl2, 1 mM EDTA, 10 μM pargyline and protease inhibitor (Complete, Roche Diagnostics) pH 7.4 using an Ultra-Turrax T8 (IKA Labortechnik, Germany). The tissue homogenate was centrifuged at 48 000×g for 10 min and the pellet was resuspended and recentrifuged as above. […]
Saturation binding studies were carried out in duplicate with 1-3 mg w.w. per tube in 0.5 ml buffer (50 mM Tris, 4 mM MgCl2, 100 mM NaCl, 1 mM EDTA, 5 mM ascorbate and 10 μM pargyline at pH 7.4), 0.2 nM [^125I]SB258585 and unlabelled SB258585 to give a final concentration range of 0.23-20 nM (12 conc.). Non-specific binding was determined in the presence of 10 μM methiothepin. […] The radioactivity was determined in a Packard Tri-Carb 2900TR liquid scintillation counter: Data were analyzed by non-linear regression analyses using PRISM 4.00 (GraphPad Software Inc., San Diego, Calif.). […]

T1 sequence (P31388 whole entry): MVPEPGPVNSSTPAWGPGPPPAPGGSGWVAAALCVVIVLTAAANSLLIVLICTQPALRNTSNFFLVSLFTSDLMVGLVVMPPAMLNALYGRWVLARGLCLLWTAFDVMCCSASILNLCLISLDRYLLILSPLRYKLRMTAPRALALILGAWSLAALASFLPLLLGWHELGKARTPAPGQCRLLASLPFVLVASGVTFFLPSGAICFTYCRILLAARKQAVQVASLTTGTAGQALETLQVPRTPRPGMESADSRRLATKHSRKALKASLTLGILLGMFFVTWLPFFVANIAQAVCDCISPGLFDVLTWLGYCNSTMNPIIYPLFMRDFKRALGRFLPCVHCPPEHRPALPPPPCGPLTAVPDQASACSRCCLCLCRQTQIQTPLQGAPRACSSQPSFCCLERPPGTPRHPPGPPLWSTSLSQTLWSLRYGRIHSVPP

In general, Ki refers to the dissociation constant of the complex between target and ligand, obtained from inhibition or displacement. In turn, `O=S(=O)(Nc1cccc(Cl)c1)c1ccc2c(c1)CNCCO2` [Example 3, N-(3-Chlorophenyl)-2,3,4,5-tetrahydro-1,4-benzoxazepine-7-sulfonamide] gave a Ki of 82 ± 28 nM.
